# Results: US11530223B2, “Spiro-lactam NMDA receptor modulators and uses thereof” (Aptinyx Inc., priority 2016, dated 2022)
# Read-outs that look alike come from different tables or passages of the source.
# How the values were obtained:
# rats = assay: positive emotional learning (PEL) test, 50-kHz ultrasonic vocalizations; type: in vivo; conditions: rat, PO, dose .001-1 mg/kg, one hour after administration
# Method: Experiments were conducted as described in Burgdorf et al., “The effect of selective breeding for differential rates of 50-kHz ultrasonic vocalizations on emotional behavior in rats,” Devel. Psychobiol., 51:34-46 (2009). Rat 50-kHz ultrasonic vocalization (hedonic USVs) is a validated model for the study of positive affective state and is best elicited by rough-and-tumble play.
# The PEL assay measures the acquisition of positive (hedonic) 50-kHz ultrasonic vocalizations (USVs) to a social stimulus, heterospecific rough and tumble play stimulation. Heterospecific rough-and-tumble play stimulation was administered by the experimenter's right hand. One hour after administration of test compound or vehicle negative control (0.5% sodium carboxymethyl cellulose in 0.9% sterile saline vehicle), animals received 3 min of heterospecific rough-and-tumble play that consisted of alternating 15 sec blocks of heterospecific play and 15 sec of no-stimulation. High frequency ultrasonic vocalizations (USVs) were recorded and analyzed by sonogram with Avasoft SASlab Pro (Germany) as previously described by Burgdorf et al., “Positive emotional learning is regulated in the medial prefrontal cortex by GluN2B-containing NMDA receptors,” Neuroscience, 192:515-523 (2011). Frequency modulated 50-kHz USVs that occurred during each of the no-stimulation periods were quantified to measure PEL. Animals were not habituated to play stimulation before testing. Positive emotional learning was measured during the conditioned stimulus (CS) trials preceding the tickle unconditioned stimulus (UCS) trials. Animals received 15 second trials consisting of 6 CS and 6 UCS trials each (3 min total).
# The table below summarizes the findings. As each experiment includes its own vehicle group, an example (typical) vehicle score is shown. Max effect (mean number of 50 kHz USVs per 15 seconds) is reported as ^: <6.0; *: 6.0-7.6; **: 7.7-10; ***:10.1-20
# NMDAR2A = target: T1, NMDAR2A (Homo sapiens, UniProt Q12879); assay: [3H]MK-801 binding in NMDAR2A expressing HEK cell membranes; type: biochemical; conditions: 50 μM glutamate; for EC50: read-out: B: log EC50 (converted)
# T1 construct: expressed in transfected cells; host or cells: HEK cells (membrane extract)
# Method: (§1) Assays were conducted as described by Moskal et al., “GLYX-13: a monoclonal antibody-derived peptide that acts as an N-methyl-D-aspartate receptor modulator,” Neuropharmacology, 49, 1077-87, 2005. These studies were designed to determine if the test compounds act to facilitate NMDAR activation in NMDAR2A, NMDAR2B, NMDAR2C or NMDAR2D expressing HEK cell membranes as measured by increases in [^3H]MK-801 binding.
# (§2) In the assay, 300 μg of NMDAR expressing HEK cell membrane extract protein was preincubated for 15 minutes at 25° C. in the presence of saturating concentrations of glutamate (50 μM) and varying concentrations of test compound (1×10^−15M−1×10^−7M), or 1 mM glycine. Following the addition of 0.3 μCi of [^3H]MK-801 (22.5 Ci/mmol), reactions were again incubated for 15 minutes at 25° C. (nonequilibrium conditions). Bound and free [^3H]MK-801 were separated via rapid filtration using a Brandel apparatus.
# (§3) In analyzing the data, the DPM (disintegrations per minute) of [^3H]MK-801 remaining on the filter were measured for each concentration of test compound or for 1 mM glycine. The DPM values for each concentration of a ligand (N=2) were averaged. The baseline value was determined from the best fit curve of the DPM values modeled using the GraphPad program and the log(agonist) vs. response (three parameters) algorithm was then subtracted from all points in the dataset. The % maximal [^3H]MK-801 binding was then calculated relative to that of 1 mM glycine: all baseline subtracted DPM values were divided by the average value for 1 mM glycine. The EC50 and % maximal activity were then obtained from the best fit curve of the % maximal [^3H]MK-801 binding data modelled using the GraphPad program and the log(agonist) vs. response (three parameters) algorithm.
# (§4) The tables below summarize the results for the wild type […] NMDAR2A, NMDAR2B, NMDAR2C, and NMDAR2D, and whether the compound is not an agonist (−), is an agonist (+), or is a strong agonist (++), where column A is based on the % maximal [^3H]MK-801 binding relative to 1 mM glycine (−=0; <100%=+; and >100%=++); and column B is based on log EC50 values (0=−; ≥1×10^−9 M (e.g., −8)=+; and <1×10^−9 M (e.g., −10)=++).
# NMDAR2B = target: T2, NMDAR2B (Homo sapiens, UniProt Q13224); assay: [3H]MK-801 binding in NMDAR2B expressing HEK cell membranes; type: biochemical; design: key to B: log EC50: 0=−; ≥1×10^−9 M (e.g., −8)=+; <1×10^−9 M (e.g., −10)=++; conditions: 50 μM glutamate; for EC50: read-out: B: log EC50 (converted)
# T2 construct: expressed in transfected cells; host or cells: HEK cells (membrane extract)
# Method: as §1, §2, §3, §4
# NMDAR2D [1] = target: T3, NMDAR2D (Homo sapiens, UniProt O15399); assay: [3H]MK-801 binding in NMDAR2D expressing HEK cell membranes; type: biochemical; design: key to B: log EC50: 0=−; ≥1×10^−9 M (e.g., −8)=+; <1×10^−9 M (e.g., −10)=++; conditions: second part of table; c4, taken as NMDAR2D
# T3 construct: expressed in transfected cells; host or cells: HEK cells (membrane extract)
# Method: as §1, §2, §3, §4
# IV pharmacokinetics = type: in vivo; conditions: Sprague Dawley rats; for C0: normal saline (first four compounds: 5% NMP, 5% Solutol HS, 90% normal saline); for Vd: read-out: Vss
# Method: Sprague Dawley rats were dosed intravenously using a normal saline formulation containing 2 mg/kg of the compounds identified in the below table (except for the first four compounds that were delivered in 5% NMP, 5% Solutol® HS and 90% normal saline formulation). The table below summarizes the results of the IV pharmacokinetics.
# [2] = oral pharmacokinetics (plasma, brain, CSF); type: in vivo; conditions: Sprague Dawley rats, per os 10 mg/kg; for Tmax: normal saline (first four compounds: 5% NMP, 5% Solutol HS, 90% normal saline)
# Method: Plasma, brain, and CSF samples were analyzed at various time points over a 24 hour period.
# NMDAR2D [3] = target: T4, NMDAR2D (Homo sapiens, UniProt O15399+Q05586); assay: [3H]MK-801 binding in NMDAR2D expressing HEK cell membranes; type: biochemical; design: key to B: log EC50: 0=−; ≥1×10^−9 M (e.g., −8)=+; <1×10^−9 M (e.g., −10)=++; conditions: second part of table; c3, taken as NMDAR2D; read-out: A: % maximal [3H]MK-801 binding relative to 1 mM glycine
# T4 construct: expressed in transfected cells; host or cells: HEK cells (membrane extract)
# Method: as §1, §2, §3, §4
# Sprague Dawley rats = assay: Porsolt forced swim test; type: in vivo; conditions: 0.1 mg/kg; for % reduction in float time: relative to vehicle group
# Method: A non-clinical in vivo pharmacology study (Porsolt assay) was performed to measure antidepressant-like effects. A negative control (0.5% sodium carboxymethyl cellulose in 0.9% sterile saline vehicle) and a positive control (fluoxetine) are shown for comparison against test compound. The study allowed for the evaluation of the effects of each compound on the Porsolt forced swim test as assessed by the rats' response (reduced floating time) during a 5-minute swimming test.
# Male 2-3 month old Sprague Dawley rats were used (Harlan, Indianapolis, Ind.). Rats were housed in Lucite cages with aspen wood chip bedding, maintained on a 12:12 light:dark cycle (lights on at 5 AM), and given ad libitum access to Purina lab chow (USA) and tap water throughout the study.
# The Porsolt forced swim test adapted for use in rats was performed as described by Burgdorf et al., (The long-lasting antidepressant effects of rapastinel (GLYX-13) are associated with a metaplasticity process in the medial prefrontal cortex and hippocampus. Neuroscience 308:202-211, 2015). Animals were placed in a 46 cm tall×20 cm in diameter clear glass tube filled to 30 cm with tap water (23±1° C.) for 15 min on the first day (habituation) and 5 min on the subsequent test day. Positive control fluoxetine was dosed 3 times (24 h, 5 h and 1 h) prior to testing. Animals were tested 1 h or 24 h post-dosing with the test compounds or vehicle. Animals received a 15 min habituation session 1 day before the 5 min test. A subset of compounds tested at 1 h post-dosing were retested at 1 wk post-dosing in the same sets of animals. Water was changed after every other animal. Animals were videotaped, and floating time as defined as the minimal amount of effort required to keep the animals head above water was scored offline by a blinded experimenter with high inter-rater reliability (Pearson's r>0.9).
# Each compound tested at dose level shown. Significance vs. vehicle group for each experiment is marked. […] A compound marked “No” was not statistically significant from vehicle. Data was averaged for test compound and vehicle groups (N approximately 8 per group) and the percent reduction in floating for group treated with test compound relative to group treated with vehicle is shown.
# [4] = read-out: A: % maximal [3H]MK-801 binding relative to 1 mM glycine
# [5] = Sprague Dawley, rat, in vivo, iv, 2 mg/kg
# [6] = Sprague Dawley, rat, in vivo, iv, 2 mg/kg, read-out: C0
# [7] = Sprague Dawley, rat, plasma, po, 10 mg/kg
# T1 sequence (Q12879 23-1464, species assumed, other chains not shown): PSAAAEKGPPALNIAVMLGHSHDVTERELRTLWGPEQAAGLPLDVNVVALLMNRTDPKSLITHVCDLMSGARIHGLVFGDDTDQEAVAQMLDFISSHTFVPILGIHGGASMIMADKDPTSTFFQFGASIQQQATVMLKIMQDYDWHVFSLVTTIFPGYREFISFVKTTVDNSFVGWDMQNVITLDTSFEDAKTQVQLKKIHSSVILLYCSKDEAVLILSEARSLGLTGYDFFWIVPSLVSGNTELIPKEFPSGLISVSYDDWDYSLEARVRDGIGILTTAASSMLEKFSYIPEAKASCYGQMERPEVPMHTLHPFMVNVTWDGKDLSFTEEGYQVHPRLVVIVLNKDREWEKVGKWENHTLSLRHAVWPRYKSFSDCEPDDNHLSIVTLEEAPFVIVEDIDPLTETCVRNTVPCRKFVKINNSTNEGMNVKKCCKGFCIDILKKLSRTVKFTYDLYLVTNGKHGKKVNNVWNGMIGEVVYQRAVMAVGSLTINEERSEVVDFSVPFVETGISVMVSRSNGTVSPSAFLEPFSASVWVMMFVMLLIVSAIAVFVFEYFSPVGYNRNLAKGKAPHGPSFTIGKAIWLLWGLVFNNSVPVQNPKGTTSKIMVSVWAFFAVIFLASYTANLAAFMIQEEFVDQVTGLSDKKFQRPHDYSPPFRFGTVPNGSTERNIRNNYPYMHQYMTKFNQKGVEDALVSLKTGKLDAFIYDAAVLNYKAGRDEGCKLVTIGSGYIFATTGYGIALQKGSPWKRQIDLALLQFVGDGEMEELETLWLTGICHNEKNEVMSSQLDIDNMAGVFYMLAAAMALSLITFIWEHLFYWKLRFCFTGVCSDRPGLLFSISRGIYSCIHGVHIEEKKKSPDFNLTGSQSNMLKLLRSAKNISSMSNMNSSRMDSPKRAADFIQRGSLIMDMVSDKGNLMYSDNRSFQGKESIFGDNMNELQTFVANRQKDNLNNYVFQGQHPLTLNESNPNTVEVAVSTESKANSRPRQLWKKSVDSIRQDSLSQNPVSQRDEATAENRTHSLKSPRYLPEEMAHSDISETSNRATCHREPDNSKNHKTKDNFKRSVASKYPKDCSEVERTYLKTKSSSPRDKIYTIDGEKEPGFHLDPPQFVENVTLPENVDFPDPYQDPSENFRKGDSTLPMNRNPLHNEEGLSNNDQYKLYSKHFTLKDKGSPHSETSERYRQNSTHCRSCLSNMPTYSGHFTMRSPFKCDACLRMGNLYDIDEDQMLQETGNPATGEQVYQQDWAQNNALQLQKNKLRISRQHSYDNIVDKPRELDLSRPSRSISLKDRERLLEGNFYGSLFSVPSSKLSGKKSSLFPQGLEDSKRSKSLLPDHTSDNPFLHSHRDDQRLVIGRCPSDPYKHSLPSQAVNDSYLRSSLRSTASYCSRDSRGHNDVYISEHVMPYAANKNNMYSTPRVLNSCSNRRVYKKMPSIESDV
# T2 sequence (Q13224 27-1484, species assumed, other chains not shown): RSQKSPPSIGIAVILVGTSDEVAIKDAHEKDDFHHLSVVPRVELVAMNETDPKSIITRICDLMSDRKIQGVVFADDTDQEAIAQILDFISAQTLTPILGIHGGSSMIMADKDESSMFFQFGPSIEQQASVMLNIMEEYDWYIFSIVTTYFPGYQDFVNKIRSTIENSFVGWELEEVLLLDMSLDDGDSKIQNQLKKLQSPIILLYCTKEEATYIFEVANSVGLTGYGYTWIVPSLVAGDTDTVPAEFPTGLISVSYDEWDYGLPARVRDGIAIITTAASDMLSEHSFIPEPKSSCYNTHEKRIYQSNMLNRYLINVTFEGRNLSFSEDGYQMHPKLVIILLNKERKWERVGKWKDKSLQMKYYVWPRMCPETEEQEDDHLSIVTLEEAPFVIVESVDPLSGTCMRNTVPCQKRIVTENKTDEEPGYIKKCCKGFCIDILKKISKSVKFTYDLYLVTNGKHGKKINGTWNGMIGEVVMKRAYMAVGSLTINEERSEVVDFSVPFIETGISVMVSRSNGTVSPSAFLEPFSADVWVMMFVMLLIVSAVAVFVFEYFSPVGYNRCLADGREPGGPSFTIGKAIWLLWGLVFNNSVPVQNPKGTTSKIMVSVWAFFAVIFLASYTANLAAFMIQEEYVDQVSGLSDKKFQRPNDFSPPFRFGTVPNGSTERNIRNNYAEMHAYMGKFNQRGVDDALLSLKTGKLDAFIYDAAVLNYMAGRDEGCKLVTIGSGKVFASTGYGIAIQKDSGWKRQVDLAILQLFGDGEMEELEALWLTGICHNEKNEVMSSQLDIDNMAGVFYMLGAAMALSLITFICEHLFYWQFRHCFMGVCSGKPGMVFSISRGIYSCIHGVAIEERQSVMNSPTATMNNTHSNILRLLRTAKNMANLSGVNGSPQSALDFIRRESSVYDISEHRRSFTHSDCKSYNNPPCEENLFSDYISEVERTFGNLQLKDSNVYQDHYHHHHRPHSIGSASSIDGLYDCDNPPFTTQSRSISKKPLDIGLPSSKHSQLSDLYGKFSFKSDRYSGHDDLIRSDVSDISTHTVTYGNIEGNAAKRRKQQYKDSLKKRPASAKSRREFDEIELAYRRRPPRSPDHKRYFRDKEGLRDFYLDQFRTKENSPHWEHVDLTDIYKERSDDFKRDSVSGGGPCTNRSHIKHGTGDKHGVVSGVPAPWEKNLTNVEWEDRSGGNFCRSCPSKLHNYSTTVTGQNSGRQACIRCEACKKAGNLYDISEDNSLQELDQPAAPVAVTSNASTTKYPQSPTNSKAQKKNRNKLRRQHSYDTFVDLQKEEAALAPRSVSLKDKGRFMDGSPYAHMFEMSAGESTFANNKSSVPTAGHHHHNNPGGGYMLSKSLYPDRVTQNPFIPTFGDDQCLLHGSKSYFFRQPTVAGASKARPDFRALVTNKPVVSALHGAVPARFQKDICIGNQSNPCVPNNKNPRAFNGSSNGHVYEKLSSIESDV
# T4 sequence (O15399 28-1336, species assumed, other chains not shown): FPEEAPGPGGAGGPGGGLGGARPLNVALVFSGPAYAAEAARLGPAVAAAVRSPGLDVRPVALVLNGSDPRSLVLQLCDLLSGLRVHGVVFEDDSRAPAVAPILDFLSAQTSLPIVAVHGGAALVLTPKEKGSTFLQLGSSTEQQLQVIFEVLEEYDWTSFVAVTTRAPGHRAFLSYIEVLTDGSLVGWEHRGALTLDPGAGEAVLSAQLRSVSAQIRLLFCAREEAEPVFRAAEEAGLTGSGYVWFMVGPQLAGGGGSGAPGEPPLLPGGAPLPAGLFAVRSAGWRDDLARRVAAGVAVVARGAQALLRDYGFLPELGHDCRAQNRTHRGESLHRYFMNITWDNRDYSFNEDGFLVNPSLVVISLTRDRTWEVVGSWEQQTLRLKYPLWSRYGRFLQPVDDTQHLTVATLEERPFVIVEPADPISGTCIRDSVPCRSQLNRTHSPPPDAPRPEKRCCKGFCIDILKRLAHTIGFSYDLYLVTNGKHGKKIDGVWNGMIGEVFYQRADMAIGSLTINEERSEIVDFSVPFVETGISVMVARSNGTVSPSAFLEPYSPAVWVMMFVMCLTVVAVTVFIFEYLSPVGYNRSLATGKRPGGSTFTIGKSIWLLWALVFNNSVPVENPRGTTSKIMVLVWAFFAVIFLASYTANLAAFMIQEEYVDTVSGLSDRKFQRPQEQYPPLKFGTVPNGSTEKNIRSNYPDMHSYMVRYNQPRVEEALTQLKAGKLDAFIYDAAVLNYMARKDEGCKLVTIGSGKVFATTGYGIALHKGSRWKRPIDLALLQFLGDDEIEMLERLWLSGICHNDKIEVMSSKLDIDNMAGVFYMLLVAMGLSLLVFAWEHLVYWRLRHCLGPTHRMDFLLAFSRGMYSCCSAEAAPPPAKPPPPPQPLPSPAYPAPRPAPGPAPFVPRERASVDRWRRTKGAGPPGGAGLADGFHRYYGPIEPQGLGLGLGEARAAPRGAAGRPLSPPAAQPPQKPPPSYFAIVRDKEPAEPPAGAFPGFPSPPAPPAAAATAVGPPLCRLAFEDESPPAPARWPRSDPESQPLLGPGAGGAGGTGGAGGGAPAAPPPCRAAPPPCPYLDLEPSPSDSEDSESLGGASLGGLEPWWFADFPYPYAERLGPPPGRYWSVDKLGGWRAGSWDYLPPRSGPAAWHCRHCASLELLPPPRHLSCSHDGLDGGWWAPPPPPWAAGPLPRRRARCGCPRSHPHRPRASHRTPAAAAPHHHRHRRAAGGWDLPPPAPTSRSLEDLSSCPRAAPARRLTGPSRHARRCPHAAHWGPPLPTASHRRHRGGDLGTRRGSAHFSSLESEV
# T3 sequence (O15399 28-1336, species assumed, other chains not shown): as above
SMILES,A: % maximal [3H]MK-801 binding relative to 1 mM glycine (NMDAR2A),EC50 (NMDAR2A),A: % maximal [3H]MK-801 binding relative to 1 mM glycine (NMDAR2B),EC50 (NMDAR2B),B: log EC50 (NMDAR2D [1]),% F [2],AUClast [2],CSF Cmax [2],Brain Cmax [2],Cmax ([2]; plasma),Emax (NMDAR2D [3]),AUC(0-t) (IV pharmacokinetics; [5]),clearance (IV pharmacokinetics; [5]),half-life (IV pharmacokinetics; [5]),C0 (IV pharmacokinetics; [6]),Vd (IV pharmacokinetics; [5]),further results
"O=C1NCCC12CCCNC2 (stereo not drawn) [RC-1, 2,7-diazaspiro[4.5]decan-1-one]",+ (<100%=+),< 1 nM,++ (>100%=++),< 1 nM,−,49%,3668.7 ng·h/mL,20.8 ng/mL,27.6 ng/mL,990.2 ng/mL,,,,,,,Max Effect (mean number of 50 kHz USVs per 15 seconds) (rats): *** (***:10.1-20); AUClast (IV pharmacokinetics; intravenous 2 mg/kg): 1511.4 ng·h/mL; Cl (IV pharmacokinetics; intravenous 2 mg/kg): 21.81 mL/min/kg; T1/2 (IV pharmacokinetics; intravenous 2 mg/kg): 81.6 min; Vss (IV pharmacokinetics; intravenous 2 mg/kg): 1.84 L/kg; C0 (IV pharmacokinetics; intravenous 2 mg/kg): 2013.4 ng/mL; Tmax [2]: 100 min
O=C1NCCC12CCCCN2 (stereo not drawn) [RG-601],,< 1 nM,,< 1 nM,,,,1151 ng/mL,1447 ng/mL,,> 100%,2280 ng·h/mL,13.5 mL/min/kg,69.6 min,2850 ng/mL,1.14 L/kg,"Emax (NMDAR2A; [4]): < 100%; Emax (NMDAR2B; [4]): < 100%; AUC(0-t) [2, 7]: 9510 ng·h/mL; bioavailability [2, 7]: 83%; Tmax ([2]; Sprague Dawley, rat, plasma, po, 10 mg/kg, read-out: Tmax): 49.8 min; Cmax ([2]; Sprague Dawley, rat, plasma, po, 10 mg/kg, plasma, read-out: Cmax): 3990 ng/mL; Significance vs. vehicle (Sprague Dawley rats; 1 wk post-dose): Yes (statistically significant (p<=0.05) from vehicle at dose level shown); % reduction in float time (Sprague Dawley rats; 1 wk post-dose): 34.4%; Significance vs. vehicle (Sprague Dawley rats; 1 h post-dose, floating time in 5 min test): Yes (statistically significant (p<=0.05) from vehicle at dose level shown); % reduction in float time (Sprague Dawley rats; 1 h post-dose): 82.7%"
CC(C)(C)OC(=O)N1CCCCC12CCNC2=O (stereo not drawn) [RG-605],+ (<100%=+),< 1 nM,− (−=0),,−,81%,6370 ng·h/mL,1211 ng/mL,733 ng/mL,6478 ng/mL,0%,1580 ng·h/mL,21 mL/min/kg,18 min,3360 ng/mL,0.53 L/kg,"B: log EC50 (NMDAR2B): −; Tmax ([2]; rat, plasma, po, read-out: Tmax): 15 min"
